Laboratory results as given in paper PMC4191400 (Nucleic Acids Research, 2014).
Values joined by “and” are separate entries in the source; they are usually repeats but may differ in a detail not shown here. Equal values may be shown once. Read-outs that look alike come from different tables or passages of the source.

Columns and labels:
[1] = system: K101R/E138D/K103N HIV-1; assay: HIV-1 drug susceptibility assay, K101R/E138D/K103N virus; type: cell-based; details: for EC50: Human immunodeficiency virus 1, head: P4/R5 cells, footnote: TZM-bl cells, mean ± SD, read-out: EC50, inhibition of HIV-1 replication
Procedure: (§1) The genes for K103N, E138D/K101R and K101R/K103N/E138D RT were cloned into HIV-1LAI ([11]). NNRTI susceptibility was determined in TZM-bl cells as described previously ([21]).

[2] = system: K101R/E138D HIV-1; assay: HIV-1 drug susceptibility assay, K101R/E138D virus; type: cell-based; details: for EC50: Human immunodeficiency virus 1, head: P4/R5 cells, footnote: TZM-bl cells, mean ± SD, read-out: EC50, inhibition of HIV-1 replication
Procedure: as §1

[3] = system: K103N HIV-1; assay: HIV-1 drug susceptibility assay, K103N virus; type: cell-based
Procedure: as §1

[4] = system: WT HIV-1; assay: HIV-1 drug susceptibility assay (inhibition of HIV-1 replication), WT virus; type: cell-based; details: Human immunodeficiency virus 1, head: P4/R5 cells, footnote: TZM-bl cells, mean ± SD, at least three experiments
Procedure: as §1

[5] = target: WT RT–T/P complex (Human immunodeficiency virus type 1 group M subtype B, UniProt P04585, C625V/C867S/D837C/T726C); set-up: species or system HIV-1; details: for Eapp (apparent FRET energy transfer, fingers-thumb): mean ± SD
Procedure: Single-molecule total internal reflection fluorescence (TIRF) microscopy was performed as described previously ([19]). For the PIFE assays, Cy3-labeled T/P molecules were surface-tethered to a polyethylene glycol (PEG) treated flow cell via a biotin:streptavidin:biotin-PEG linkage. The concentrations of T/P were typically 20 pM, which provided an optimal surface density of ∼100 molecules per field of view. […] For the FRET assays, unlabeled T/P was surface-tethered by introducing 2 μM T/P into the flow cell to allow formation of a surface-dense layer of T/P substrates. Labeled RT (40 pM) was then introduced into the flow cell and allowed to bind to the T/P. Unbound RT was removed by washing. The PIFE and FRET data were analyzed as described in Supplementary Materials and Methods.
All experiments were performed in 50 mM Tris-HCl, pH 7.5, 25 mM NaCl, and 5 mM MgCl2.
The buffer used in TIRF microscopy experiments also contained 0.1 mg/ml glucose oxidase, 0.02 mg/ml catalase, 0.4% wt/v β-d-glucose, and 2 mM Trolox. Unless otherwise indicated, the TTP, EFV and NVP concentrations were held at 50 μM, 500 nM and 1 μM, respectively, […]
Unlabeled T/P was surface tethered by introducing 2 µM T/P into the flow cell to allow formation of a surface-dense layer of T/P substrates, which promoted observation of RT-T/P complexes. 40 pM of labeled RT was then introduced into the flow cell and allowed to bind to the T/P. Unbound RT was removed by extensive washing. Low concentrations of RT followed by a wash step eliminated excess background noise and/or saturation of the EMCCD. Based on the relative distribution of donor and acceptor intensities observed in the TIRFM fields of view, […]
analyzed. Eapp was calculated using the equation: […]
where ID and IA denote background-corrected donor and acceptor intensities, respectively.
RT. Eapp histograms were subsequently constructed by collecting the pre-photobleach regions of all traces visibly resulting in donor and acceptor photobleaching, binned into 25 bins, and then fit with single Gaussian functions (see Supplementary Figure 3). Thumb/fingers distances reported in Supplementary Table 1 were derived from the fitted Eapp values using the Förster equation: […]
where r is the distance between the dipoles of Cy3 and Cy5, and Ro is the empirically calculated

[6] = target: T1, K103N RT–T/P complex (Human immunodeficiency virus type 1 group M subtype B, UniProt P04585, K690N); type: binding, HIV-1; details: K103N vs WT RT–T/P complex
T1 construct: asymmetric heterodimer composed of a 66-kDa (p66) subunit and a p66-derived 51-kDa (p51) subunit; made in house
Procedure: (§2) Fluorescence anisotropy experiments were performed as previously described ([17],[18]). Assays were carried out using a fluorescein-labeled T/P substrate. The concentration of T/P in all experiments was 5 nM (in a 400-μl cuvette). Data were analyzed as described in the Supplementary Materials and Methods section.
(§3) -ddC-3’) was annealed to a 5’-biotinylated 35 nucleotide DNA […]
(§4) template (5’-biotin-[…]-3’). We also […]
(§5) performed PIFE experiments using a 21 nucleotide DNA primer (5’-Cy3- […]
(§6) -ddC-3’) annealed to the same template. For the single-pair FRET experiments, the same T/P was used, but it lacked 5’-Cy3. For the anisotropy […]
(§7) Fluorescence anisotropy experiments were performed as previously described (5, 6), using a Varian Cary Eclipse fluorescence spectrophotometer. […]
(§8) 5 and 10 nm respectively. […] Anisotropy (r) was calculated as: r= (IVV-G·IVH)/(IVV+2·G·IVH) (1) where IVV is the fluorescence intensity with vertically oriented excitation and emission polarizers and IVH is the fluorescence intensity with a vertically oriented excitation polarizer and a horizontally oriented emission polarizer. The G-factor, defined as G=IHV/IHH, was measured […]
(§9) For all theoretical calculations, r was calculated using the Perrin equation: r=ro/(1+τ/ θ)                 (2) where ro is the fundamental anisotropy, τ  the lifetime and θ  the rotational correlation time (7). […]
(§10) analyzed. […]

[7] = target: T2, K101R HIV-1 RT (Human immunodeficiency virus type 1 group M subtype B, UniProt P04585, K688R); assay: Inhibition of RT RNA-dependent DNA polymerase activity, K101R RT; type: biochemical
T2 construct: asymmetric heterodimer composed of a 66-kDa (p66) subunit and a p66-derived 51-kDa (p51) subunit; made in house
Procedure: (§11) The RNA- and DNA-dependent DNA polymerase activities of the purified and labeled RTs were assessed as described previously ([14]).

[8] = target: T3, E138D HIV-1 RT (Human immunodeficiency virus type 1 group M subtype B, UniProt P04585, E725D); assay: Inhibition of RT RNA-dependent DNA polymerase activity, E138D RT; type: biochemical
T3 construct: asymmetric heterodimer composed of a 66-kDa (p66) subunit and a p66-derived 51-kDa (p51) subunit; made in house
Procedure: as §11

[9] = target: T4, WT RT–T/P complex (Human immunodeficiency virus type 1 group M subtype B, UniProt P04585); assay: biochemical; set-up: species or system HIV-1; details: fluorescence anisotropy, 5 nM T/P, read-out: Kd, NNRTI binding to the RT–T/P complex
T4 construct: asymmetric heterodimer composed of a 66-kDa (p66) subunit and a p66-derived 51-kDa (p51) subunit; made in house
Procedure: as §2, §3, §4, §5, §6, §7, §8, §9, §10

[10] = target: T5, K101R/E138D HIV-1 RT (Human immunodeficiency virus type 1 group M subtype B, UniProt P04585, E725D/K688R); assay: Inhibition of RT RNA-dependent DNA polymerase activity, K101R/E138D RT; type: biochemical
T5 construct: asymmetric heterodimer composed of a 66-kDa (p66) subunit and a p66-derived 51-kDa (p51) subunit; made in house
Procedure: as §11

[11] = target: T6, WT HIV-1 RT (Human immunodeficiency virus type 1 group M subtype B, UniProt P04585); assay: biochemical; details: mean ± SD, at least four experiments, read-out: IC50, inhibition of RT RNA-dependent DNA polymerase activity
T6 construct: asymmetric heterodimer composed of a 66-kDa (p66) subunit and a p66-derived 51-kDa (p51) subunit; made in house
Procedure: as §11

[12] = target: T1, K103N RT–T/P complex; assay: dTTP binding to RT-T/P complex by fluorescence anisotropy, K103N; set-up: species or system HIV-1; details: presence vs absence of EFV
Procedure: as §2, §3, §4, §5
-ddC-3’) annealed to the same template. For the single-pair FRET experiments, the same T/P was used, but it lacked 5’-Cy3. For the anisotropy experiments we used a 19 nt DNA primer (5’-Fluorescein-dT-[…]- […]
Fluorescence anisotropy experiments were performed as previously described (5, 6), using a Varian Cary Eclipse fluorescence spectrophotometer. […] Anisotropy (r) was calculated as: r= (IVV-G·IVH)/(IVV+2·G·IVH) (1) where IVV is the fluorescence intensity with vertically oriented excitation and emission polarizers and IVH is the fluorescence intensity with a vertically oriented excitation polarizer and a horizontally oriented emission polarizer. The G-factor, defined as G=IHV/IHH, was measured before each experiment to ensure a value of ~ 1.65. […]
For fluorescein, empirically determined values of ro = […] and τ = 4.1 ns were used (8, 9). θ was calculated using the equation: […]
as §10

[13] = Human immunodeficiency virus 1, K103N virus, head: P4/R5 cells, footnote: TZM-bl cells, mean ± SD, read-out: EC50, inhibition of HIV-1 replication

O=C1Nc2ccc(Cl)cc2[C@@](C#CC2CC2)(C(F)(F)F)O1 [Efavirenz, efavirenz]
EC50 [1]: 15.9 ± 2.4 nM | Increase of susceptibility (as measured by IC50 and EC50) by the E138D/K101R mutation ([2]; E138D/K101R vs WT): up to 7 fold | EC50 ([2]; K101R/E138D virus): 0.2 nM | EC50 ([3]; Human immunodeficiency virus 1, read-out: EC50, inhibition of HIV-1 replication): 64 ± 18.7 nM | EC50 [4]: 1.3 ± 0.2 nM

Cc1ccnc2c1NC(=O)c1cccnc1N2C1CC1 [Nevirapine, nevirapine]
EC50 [1]: > 200 nM | Eapp (apparent FRET energy transfer, fingers-thumb) ([5]; WT RT-T/P plus NNRTI (EFV 500 nM, NVP 1 μM), centre of Gaussian fit, listed as NVP): 0.68 ± 0.18 and 0.68 | Eapp (apparent FRET energy transfer, fingers-thumb) ([5]; WT RT-T/P-dNTP plus NNRTI): 0.72 ± 0.14 | Average opening of the fingers and thumb ([5]; WT RT–T/P complex, NNRTI vs no inhibitor): 2.0 Å | Effect on fingers/thumb FRET of the ternary complex ([5]; WT RT–T/P–dNTP complex, NNRTI infused): did not affect the FRET histogram | EC50 ([2]; K101R/E138D virus): 21.6 ± 16.8 nM | Decrease of binding affinity by the K103N substitution [6]: ~10 fold | EC50 [3, 13]: > 200 nM | EC50 [4]: 24.6 ± 5.9 nM

Cc1cc(/C=C/C#N)cc(C)c1Nc1ccnc(Nc2ccc(C#N)cc2)n1 [Rilpivirine, rilpivirine]
Fold-R (EC50 mutant/EC50 WT) [1]: 0.3 | EC50 [1]: 0.12 ± 0.03 nM | Fold-R (IC50 mutant/IC50 WT) [7]: 0.7 | IC50 ([7]; mean ± SD): 15.5 ± 7.6 nM | Fold-R (IC50 mutant/IC50 WT) [8]: 0.4 | IC50 ([8]; mean ± SD): 8.3 ± 1.2 nM | Kd [9]: 82.5 nM | Fold-R (IC50 mutant/IC50 WT) [10]: 0.5 | IC50 ([10]; mean ± SD): 11.2 ± 0.8 nM | EC50 ([2]; K101R/E138D virus): 0.06 ± 0.01 nM | Fold-R (EC50 mutant/EC50 WT) ([2]; K101R/E138D virus): 0.2 | Effect of the K103N substitution on NNRTI binding affinity [6]: did not decrease the binding affinity | EC50 [3, 13]: 0.4 ± 0.1 nM | Fold-R (EC50 mutant/EC50 WT) ([3]; K103N virus): 1.1 | EC50 [4]: 0.37 ± 0.06 nM | IC50 [11]: 22.5 ± 2.2 nM

Cc1cn([C@H]2C[C@H](O)[C@@H](COP(=O)(O)OP(=O)(O)OP(=O)(O)O)O2)c(=O)[nH]c1=O [dTTP]
Increase of Kd for dTTP binding in the presence of inhibitor [12]: 3 fold
